Data: patent publication US8940739B2, “Compound of a reverse-turn mimetic and a production method and use therefor” (JW Pharmaceutical Corporation, priority 2010, dated 2015)

What was measured:
[1] = tested on: MV-4-11 (human, Acute Myeloid Leukemia cell line) cells; test: Cell growth inhibition assay, GI50 of MV-4-11; assay type: cell-based; conditions: Homo sapiens, MV4-11, 72 h, MV-4-11 cells
In short: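 GI50 derived from 490 nm absorbance using CellTiter 96 Aqueous One reagent, with compound-free medium providing the background. Human AML MV-4-11 cells, seeded at 5×10^4 per well in IMDM/10% FBS, incubated 72 h at 37 °C with duplicate serial dilutions of test compound.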

[2] = target: cDNA-expressed human hepatic CYP3A4 (Homo sapiens (Human), UniProt P08684); test: Measurement of CYP (IC50 of P450 CYP3A4), BFC substrate; assay type: in vitro ADME; conditions: 20 minutes
Sequence of cDNA-expressed human hepatic CYP3A4 (P08684 whole entry): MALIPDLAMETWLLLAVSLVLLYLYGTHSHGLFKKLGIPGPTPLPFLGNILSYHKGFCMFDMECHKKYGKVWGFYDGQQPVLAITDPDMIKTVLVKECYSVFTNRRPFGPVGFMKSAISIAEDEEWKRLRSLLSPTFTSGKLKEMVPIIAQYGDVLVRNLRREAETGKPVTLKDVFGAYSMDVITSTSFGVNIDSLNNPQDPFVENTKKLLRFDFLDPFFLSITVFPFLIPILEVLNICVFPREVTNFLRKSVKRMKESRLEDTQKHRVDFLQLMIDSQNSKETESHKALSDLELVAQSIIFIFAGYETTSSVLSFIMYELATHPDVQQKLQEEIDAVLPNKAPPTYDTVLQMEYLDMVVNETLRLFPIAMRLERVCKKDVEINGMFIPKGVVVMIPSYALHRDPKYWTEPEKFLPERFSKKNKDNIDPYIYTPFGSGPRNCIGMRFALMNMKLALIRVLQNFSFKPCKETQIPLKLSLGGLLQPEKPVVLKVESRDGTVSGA
Protocol: The compounds of the present invention had lower P450 CYP3A4 inhibitory activity (higher IC50). Lower CYP3A4 inhibitory activity means that the compounds of the present invention cause fewer side-effects from the pharmacological point of view.
This assay was performed in a 200 l volume in 96-well microtiter plates using cDNA-expressed human hepatic CYP3A4 (supersome, BD Gentest™ #456202). As a substrate for CYP3A4, 7-benzyloxy-4-trifluoromethyl-coumarin (BFC) was used. The compounds of Examples 1 to 5 and the substrate BFC were dissolved in 100% acetonitrile. The final volume of acetonitrile of the incubation mixture was less than 1% (volume/volume). A potassium phosphate buffer (pH 7.4, final concentration 0.1M), MgCl2 (final concentration 8.3 mM), EDTA (final concentration 1.67 mM), an inventive compound stock solution, CYP3A4 supersome, and NADPH (final concentration 0.25 mM) were added to each well. The reaction was initiated by adding the substrate (BFC, final concentration 30 µM) at 37. The incubation was performed for 20 minutes and then the reaction was terminated by the addition of 75 μl of acetonitrile: 0.5 M tris-base=4:1 (volume/volume).
Then, a fluorescent signal was measured using a fluorometer. A BFC metabolite, 7-hydroxy-4-trifluoromethyl-coumarin, was measured using an excitation wavelength of 409 nm and an emission wavelength of 530 nm.

SMILES | GI50 [1] | IC50 [2]
C=CCN1CC(=O)N2[C@@H](Cc3ccc(O)cc3)C(=O)N(Cc3cccc4c(-c5ccc(C(=O)N6CCSCC6)cc5)cn(C)c34)C[C@@H]2N1C(=O)NCc1ccccc1 [Compound D-5] | 2.2 nM | 1760 nM
C=CCN1CC(=O)N2[C@@H](Cc3ccc(O)cc3)C(=O)N(Cc3cccc4c(-c5ccc(C(=O)Nc6ccc(N7CCN(C)CC7)cc6)cc5)cn(C)c34)C[C@@H]2N1C(=O)NCc1ccccc1 [Compound D-11] | 1.8 nM | 7040 nM
C=CCN1CC(=O)N2[C@@H](Cc3ccc(O)cc3)C(=O)N(Cc3cccc4c(-c5ccc(C(=O)Nc6ccc(N7CCOCC7)nc6)cc5)cn(C)c34)C[C@@H]2N1C(=O)NCc1ccccc1 [Compound D-12] | 2.1 nM | > 25000 nM
C=CCN1CC(=O)N2[C@@H](Cc3ccc(O)cc3)C(=O)N(Cc3cccc4c(-c5ccc(C(=O)Nc6cccc(C(N)=O)c6)cc5)cn(C)c34)C[C@@H]2N1C(=O)NCc1ccccc1 [Compound D-15] | 2.8 nM | 16000 nM
C=CCN1CC(=O)N2[C@@H](Cc3ccc(O)cc3)C(=O)N(Cc3cccc4c(-c5ccc(C(=O)Nc6cccc(O)c6)cc5)cn(C)c34)C[C@@H]2N1C(=O)NCc1ccccc1 [Compound D-16] | 15.6 nM | 8070 nM
C=CCN1CC(=O)N2[C@@H](Cc3ccc(O)cc3)C(=O)N(Cc3cccc4c(-c5ccc(C(=O)Nc6ccccc6)cc5)cn(C)c34)C[C@@H]2N1C(=O)NCc1ccccc1 [Compound D-17] | 6.9 nM | 7630 nM
C=CCN1CC(=O)N2[C@@H](Cc3ccc(O)cc3)C(=O)N(Cc3cccc4c(-c5ccc(C(=O)Nc6ccc(N)cc6)cc5)cn(C)c34)C[C@@H]2N1C(=O)NCc1ccccc1 [Compound D-18] | 1.2 nM | 2420 nM
C=CCN1CC(=O)N2[C@@H](Cc3ccc(O)cc3)C(=O)N(Cc3cccc4c(-c5ccc(C(=O)Nc6cccc(OC)c6)cc5)cn(C)c34)C[C@@H]2N1C(=O)NCc1ccccc1 [Compound D-21] | 6.9 nM | 6530 nM
C=CCN1CC(=O)N2[C@@H](Cc3ccc(O)cc3)C(=O)N(Cc3cccc4c(-c5ccc(C(=O)Nc6ccc(OC)cc6)cc5)cn(C)c34)C[C@@H]2N1C(=O)NCc1ccccc1 [Compound D-22] | 4.2 nM | 19500 nM
C=CCN1CC(=O)N2[C@@H](Cc3ccc(O)cc3)C(=O)N(Cc3cccc4c(-c5ccc(C(=O)Nc6cccc(OC(C)C)c6)cc5)cn(C)c34)C[C@@H]2N1C(=O)NCc1ccccc1 [Compound D-26] | 19 nM | 13700 nM
C=CCN1CC(=O)N2[C@@H](Cc3ccc(O)cc3)C(=O)N(Cc3cccc4c(-c5ccc(C(=O)NNC(C)(C)C)cc5)cn(C)c34)C[C@@H]2N1C(=O)NCc1ccccc1 [Compound D-34] | 1.2 nM | 3410 nM
C=CCN1CC(=O)N2[C@@H](Cc3ccc(O)cc3)C(=O)N(Cc3cccc4c(-c5ccc(C(=O)NN6CCN(c7ccccn7)CC6)cc5)cn(C)c34)C[C@@H]2N1C(=O)NCc1ccccc1 [Compound D-44] | 19.5 nM | > 25000 nM
C=CCN1CC(=O)N2[C@@H](Cc3ccc(O)cc3)C(=O)N(Cc3cccc4c(-c5ccc(NC(=O)c6ccccc6)cc5)cn(C)c34)C[C@@H]2N1C(=O)NCc1ccccc1 [Compound D-48] | 1.9 nM | > 25000 nM
C=CCN1CC(=O)N2[C@@H](Cc3ccc(O)cc3)C(=O)N(Cc3cccc4c(-c5ccc(NC(=O)c6ccc(OC)cc6)cc5)cn(C)c34)C[C@@H]2N1C(=O)NCc1ccccc1 [Compound D-49] | 10 nM | > 25000 nM
C=CCN1CC(=O)N2[C@@H](Cc3ccc(O)cc3)C(=O)N(Cc3cccc4c(-c5ccc(NC(=O)c6ccc(N)cc6)cc5)cn(C)c34)C[C@@H]2N1C(=O)NCc1ccccc1 [Compound D-50] | 2 nM | > 25000 nM
C=CCN1CC(=O)N2[C@@H](Cc3ccc(O)cc3)C(=O)N(Cc3cccc4c(-c5ccc(NC(=O)c6ccc(N(C)C)cc6)cc5)cn(C)c34)C[C@@H]2N1C(=O)NCc1ccccc1 [Compound D-51] | 5.4 nM | > 25000 nM
C=CCN1CC(=O)N2[C@@H](Cc3ccc(O)cc3)C(=O)N(Cc3cccc4c(-c5ccc(NC(=O)c6ccc(CN(CC)CC)cc6)cc5)cn(C)c34)C[C@@H]2N1C(=O)NCc1ccccc1 [Compound D-55] | 5.8 nM | 2260 nM
C=CCN1CC(=O)N2[C@@H](Cc3ccc(O)cc3)C(=O)N(Cc3cccc4c(-c5ccc(NC(=O)c6ccc(NC)cc6)cc5)cn(C)c34)C[C@@H]2N1C(=O)NCc1ccccc1 [Compound D-56] | 12.5 nM | > 25000 nM
C=CCN1CC(=O)N2[C@@H](Cc3ccc(O)cc3)C(=O)N(Cc3cccc4c(-c5ccc(NC(=O)N6CCOCC6)cc5)cn(C)c34)C[C@@H]2N1C(=O)NCc1ccccc1 [Compound D-59] | 1.2 nM | 2190 nM

SMILES | GI50 [1] | IC50 [2]
C=CCN1CC(=O)N2[C@@H](Cc3ccc(O)cc3)C(=O)N(Cc3cccc4c(-c5ccc(NC(=O)NCCc6ccccc6)cc5)cn(C)c34)C[C@@H]2N1C(=O)NCc1ccccc1 [Compound D-75] | 17 nM | 10500 nM
C=CCN1CC(=O)N2[C@@H](Cc3ccc(O)cc3)C(=O)N(Cc3cccc4c(-c5ccc(NC(=O)Nc6ccc(OC)cc6)cc5)cn(C)c34)C[C@@H]2N1C(=O)NCc1ccccc1 [Compound D-76] | 15.8 nM | 9480 nM
C=CCN1CC(=O)N2[C@@H](Cc3ccc(O)cc3)C(=O)N(Cc3cccc4c(-c5ccc(NC(=O)NC6CCCC6)cc5)cn(C)c34)C[C@@H]2N1C(=O)NCc1ccccc1 [Compound D-79] | 10.8 nM | 7800 nM
C=CCN1CC(=O)N2[C@@H](Cc3ccc(O)cc3)C(=O)N(Cc3cccc4c(-c5ccc(NC(=O)Nc6ncccn6)cc5)cn(C)c34)C[C@@H]2N1C(=O)NCc1ccccc1 [Compound D-82] | 16.8 nM | 8520 nM
C=CCN1CC(=O)N2[C@@H](Cc3ccc(O)cc3)C(=O)N(Cc3cccc4c(-c5ccc(NC(=O)Nc6cnccn6)cc5)cn(C)c34)C[C@@H]2N1C(=O)NCc1ccccc1 [Compound D-83] | 13.8 nM | 4610 nM
C=CCN1CC(=O)N2[C@@H](Cc3ccc(O)cc3)C(=O)N(Cc3cccc4c(-c5ccc(NC(=O)N6CCOCC6)nc5)cn(C)c34)C[C@@H]2N1C(=O)NCc1ccccc1 [Compound D-88] | 1.2 nM | 10200 nM
C=CCN1CC(=O)N2[C@@H](Cc3ccc(O)cc3)C(=O)N(Cc3cccc4c(-c5ccc(C(=O)N6CCN(S(C)(=O)=O)CC6)nc5)cn(C)c34)C[C@@H]2N1C(=O)NCc1ccccc1 [Compound D-90] | 4.6 nM | 6960 nM
C=CCN1CC(=O)N2[C@@H](Cc3ccc(O)cc3)C(=O)N(Cc3cccc4c(-c5ccc(C(=O)N6CCN(C)CC6)nc5)cn(C)c34)C[C@@H]2N1C(=O)NCc1ccccc1 [Compound D-91] | 1.3 nM | 6510 nM
C=CCN1CC(=O)N2[C@@H](Cc3ccc(O)cc3)C(=O)N(Cc3cccc4c(-c5ccc(NC(=O)N6CCN(S(C)(=O)=O)CC6)nc5)cn(C)c34)C[C@@H]2N1C(=O)NCc1ccccc1 [Compound D-97] | 2.2 nM | 6400 nM
C=CCN1CC(=O)N2[C@@H](Cc3ccc(O)cc3)C(=O)N(Cc3cccc4c(-c5ccc(NC(=O)NC6CCN(C)CC6)nc5)cn(C)c34)C[C@@H]2N1C(=O)NCc1ccccc1 [Compound D-98] | 23 nM | 2920 nM
C=CCN1CC(=O)N2[C@@H](Cc3ccc(O)cc3)C(=O)N(Cc3cccc4c(-c5ccc(C(=O)N(C)C)o5)cn(C)c34)C[C@@H]2N1C(=O)NCc1ccccc1 [Compound D-102] | 1.6 nM | 3420 nM
C=CCN1CC(=O)N2[C@@H](Cc3ccc(O)cc3)C(=O)N(Cc3cccc4c(C(=O)N5CCOCC5)cn(C)c34)C[C@@H]2N1C(=O)NCc1ccccc1 [Compound E-3] | 18.4 nM | 3900 nM
C=CCN1CC(=O)N2[C@@H](Cc3ccc(O)cc3)C(=O)N(Cc3cccc4c(C(=O)N5CCN(C)CC5)cn(C)c34)C[C@@H]2N1C(=O)NCc1ccccc1 [Compound E-4] | 11.2 nM | 12200 nM
C=CCN1CC(=O)N2[C@@H](Cc3ccc(O)cc3)C(=O)N(Cc3cccc4c(C(=O)N5CCN(C(C)C)CC5)cn(C)c34)C[C@@H]2N1C(=O)NCc1ccccc1 [Compound E-7] | 11.3 nM | 2240 nM
C=CCN1CC(=O)N2[C@@H](Cc3ccc(O)cc3)C(=O)N(Cc3cccc4c(C(=O)N5CCN(CCOC)CC5)cn(C)c34)C[C@@H]2N1C(=O)NCc1ccccc1 [Compound E-10] | 10.8 nM | 9120 nM
C=CCN1CC(=O)N2[C@@H](Cc3ccc(O)cc3)C(=O)N(Cc3cccc4c(C(=O)N5CCN(CCN6CCOCC6)CC5)cn(C)c34)C[C@@H]2N1C(=O)NCc1ccccc1 [Compound E-25] | 20.4 nM | 6090 nM
C=CCN1CC(=O)N2[C@@H](Cc3ccc(O)cc3)C(=O)N(Cc3cccc4c(C(=O)N5CCN6CCCC6C5)cn(C)c34)C[C@@H]2N1C(=O)NCc1ccccc1 (some centres unmarked) [Compound E-43] | 15.1 nM | 6600 nM
C=CCN1CC(=O)N2[C@@H](Cc3ccc(O)cc3)C(=O)N(Cc3cccc4c(C(=O)N5CCN6CCN(CC(C)C)CC6C5)cn(C)c34)C[C@@H]2N1C(=O)NCc1ccccc1 (some centres unmarked) [Compound E-45] | 1.8 nM | 3980 nM
